Data on one molecule can be found in patent publication US10363261B2, “Enolase inhibitors and methods of treatment therewith” (Board of Regents, The University of Texas System, priority 2015, dated 2019).

Data set [1] deals with Vinculin or Triosephosphate isomerase. As to the kind of experiment: Thermal shift assay, internal controls. The class given is binding, human. As to the method:
(§1) Thermal shift assays were conducted as described in Martinez Molina, et al. (2013), on lysates of D423 cell line overexpressing ENO1 and ENO2, on recombinant human ENO1 and ENO2 purified from E. coli as well as intact D423 ENO2 overexpressing glioma cells. […] Lysates were diluted (1:100) in Enolase enzymatic activity buffer as mentioned above. Diluted lysates were treated with SF2312, PhAH or vehicle and heated on a C1000 Thermal cycler (Bio-rad) with a linear temperature gradient (50 to 82.5° C. in 2.5° C. increments) for 3 minutes (FIG. 24). The lysates were then centrifuged at 20,000 g for 10 minutes. Supernatant and pellet were then separated and NuPage LDS Sample buffer (Life Technologies # NP0007) was added. Western Blots were performed as described previously (Muller, et al., 2012). The following antibodies were used: ENO1 (Abcam # ab155102), ENO2 (Dako # M087301-2), Vinculin (EMD Millipore #05-386), pan-ENO (Santa Cruz Biotechnology, sc-7455) and TPI (Proteintech #10713-1-AP). Recombinant human ENO2: The same procedure was carried out on purified recombinant ENO2 from E. coli, utilizing the purified protein generated for the X-ray crystallography studies. […]

For the next data set, the target named is T1, enolase 2 (Homo sapiens, UniProt P09104).
T1 construct: expressed in transfected cells; host or cells: D423 (D423-MG) human glioma cells, clone pCMV ENO2 1x
T1 sequence (P09104 whole entry): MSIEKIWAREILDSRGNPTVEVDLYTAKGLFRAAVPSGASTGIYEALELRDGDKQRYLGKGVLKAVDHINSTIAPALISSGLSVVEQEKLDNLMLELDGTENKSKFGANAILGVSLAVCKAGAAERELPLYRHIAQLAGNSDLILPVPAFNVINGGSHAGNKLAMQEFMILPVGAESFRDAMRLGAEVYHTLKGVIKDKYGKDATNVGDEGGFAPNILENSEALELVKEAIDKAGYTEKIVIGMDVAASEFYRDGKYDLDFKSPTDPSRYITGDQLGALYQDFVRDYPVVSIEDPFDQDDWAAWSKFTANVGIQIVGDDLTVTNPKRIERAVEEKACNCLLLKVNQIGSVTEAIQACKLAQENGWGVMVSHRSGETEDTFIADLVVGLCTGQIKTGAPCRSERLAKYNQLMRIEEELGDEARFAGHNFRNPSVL
As to the kind of experiment: Thermal shift assay in intact glioma cells overexpressing ENO2 (D423 ENO2). The data set is classed as cell-based. The note with it: 100 μM inhibitor. Here is the method: as §1

The nature of data set [2]: Hematocrit / hemolytic anemia after IV administration. An excerpt: Erythrocytes are sensitive to disruptions in the glycolytic cycle as glycolysis is the cell's only source of energy in the form of ATP.
In data set [3] the test system is conversion of 13C-glucose to 13C-lactate in D423 ENO1-deleted glioma cells. Nature of the data set: 13C-NMR tracing of uniformly labeled 13C-glucose to 13C-lactate. The note with it: 48 hours, 10 mM 13C-uniformly labeled glucose.
Protocol: (§2) Glucose labeled with heavy, non-radioactive, ^13C at carbon C-1 and ^13C at all carbon atoms were purchased from Cambridge Isotopes (CLM-420-1 and CLM-1396, respectively). Glucose free DMEM media was supplemented with 10 mM ^13C-1 or ^13C-all labeled Glucose. NMR metabolic tracing was performed by substituting conventional DMEM medium with glucose free DMEM medium, to which ^13C-1 glucose (Cambridge Isotopes) was supplemented at 10 mM. […] After 4 days, conditioned media was extracted with 80% methanol at −80° C., lyophilized and resuspended in D2O. Proton-decoupled ^13C NMR spectra were acquired using a 500 MHZ Bruker instrument in the M. D. Anderson NMR core facility.
For data set [4], the system named is lactate/glucose in D423 ENO1-rescued glioma cells. Nature of the data set: 13C-NMR tracing of uniformly labeled 13C-glucose to 13C-lactate, rescued cells. The note with it: even at 200 μM.
Protocol: as §2
The next data set concerns the target human ENO1 (Homo sapiens, UniProt P06733). Nature of the data set: Enolase enzymatic activity, NADH-linked pyruvate kinase/lactate dehydrogenase fluorescence assay, ENO1.
A further data set deals with ENO2 (Homo sapiens, UniProt P09104). Nature of the data set: Thermal shift assay on recombinant human ENO2 expressed in E. coli. The data set is classed as binding. More on the design: DNA encoding full length Human Enolase 2 was cloned into pJL-H6 plasmid expression vector; His tag (pJL-H6) (C); made in house; host or cells: E. coli BL21 (DE3). The note with it: 10 μM inhibitor. Here is the method:
as §1

Sequence of human ENO1 (P06733 whole entry): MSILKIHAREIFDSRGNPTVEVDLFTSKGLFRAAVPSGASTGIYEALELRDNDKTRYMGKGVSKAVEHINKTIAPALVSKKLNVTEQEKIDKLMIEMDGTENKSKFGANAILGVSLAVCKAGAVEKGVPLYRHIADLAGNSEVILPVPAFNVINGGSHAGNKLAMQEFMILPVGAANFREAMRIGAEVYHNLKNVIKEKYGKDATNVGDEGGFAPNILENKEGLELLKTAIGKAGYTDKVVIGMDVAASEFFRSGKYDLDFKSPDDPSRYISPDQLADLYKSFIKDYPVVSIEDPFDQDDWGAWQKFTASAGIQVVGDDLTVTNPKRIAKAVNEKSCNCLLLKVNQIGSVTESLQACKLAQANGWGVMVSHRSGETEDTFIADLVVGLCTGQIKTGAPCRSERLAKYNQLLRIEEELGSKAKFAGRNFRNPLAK
Sequence of ENO2 (P09104 whole entry): as the sequence (P09104 whole entry) above
Protocol for human ENO1: Human ENO1 and ENO2 were overexpressed in the human D423 cell line and used for enzymatic assays. Inhibitors (PhAH, SF2312 and Deoxy-SF2312, Hex, Hepta, Pom-Hex, and Fosmidomycin) were incubated with the enzyme prior to addition of 5 mM 2-PG substrate. Enzymatic activity was measured by monitoring fluorescence of NADH at 340 nm Exitation/460 nm emission using an Lactate dehydrogenase/Pyruvate kinase linked assay which links the formation of PEP to the oxidation of NADH to NAD+, as we have described in published work (Muller et al., 2012). Enzymatic activity was normalized to that in the absence of the inhibitor (set to 1) and plotted as function of inhibitor concentration.
Enolase activity was measured using two different methods, either by a fluorometric NADH-linked assay or a direct spectrophotometric assay via formation of PEP. In the fluorescent assay, enolase activity was measured via NADH oxidation in a pyruvate kinase-lactate dehydrogenase coupled assay as previously described (Muller, et al., 2012). The assay is conducted in 10 mM KCl, 5 mM MgSO4, 100 mM triethanolamine at pH 7.4, with 400 μM NADH and 2 mM ADP. 2-Phosphoglycerate (2-PGA), pyruvate kinase (PK) and lactate dehydrogenase (LDH) are provided in excess, with conversion of 2-PGA to PEP by enolase being rate limiting. PEP (with ADP) is substrate of PK; pyruvate formed by this reaction is linked to NADH oxidation by LDH. Enolase activity is determined by measuring oxidation of NADH fluorescently by excitation at 340 nm and emission at 460 nm. The substrate concentration, if not otherwise indicated, was 5 mM 2-PGA. Fluorescence was measured using Omega Fluorescence Plate Reader (BMG Labtech). Alternatively, Enolase activity was measured directly by the appearance of PEP from 2-PGA via absorption at 240 nm (Marangos, et al., 1978). The assay medium was the same, except that all the auxiliary reagents (PK/LDH, NADH, ADP) are omitted. Both assays were conducted in a 96-well plated format with the direct assay performed in UV-transmissible plates.

For orientation: IC50 means the point on the concentration scale where inhibition reaches its midpoint. A low value points to higher potency. Turning to `O=C1C(P(=O)(O)O)CC(O)N1O` (racemic) [SF2312, 3-dihydroxyphosphoryl-1,5-dihydroxy-2-pyrrolidone], the “effect on the thermal stability of the internal controls” value in data set [1] is on record as “neither PhAH nor SF2312 had any effect”. The “shift of the thermal melting curve of ENO2 in intact glioma cells” value at enolase 2 is approximately 15 °C. For the same molecule, the “hematocrit after treatment (drop from 45%)” value in data set [2] (100 mg/kg IV for longer than a week) amounted to 29%. For the same molecule, in data set [2] (as low as), the “dose at which mild hemolytic anemia can be observed” value is on record as 50 mg/kg. For the same molecule, in data set [3], the “concentration sufficient to decrease the ratio of 13C Lactate/13C glucose by 70%” value was determined as 6.25 µM. In addition, the “effect on lactate/glucose in ENO1-rescued cells” value in data set [4] is recorded as “neither PhAH nor SF2312 decreased lactate/glucose”. Also, the IC50 against human ENO1 was approximately 20 nM. The “thermal stabilization of recombinant ENO2” value on ENO2 was approximately 15 °C.
